Measured values from publication PMC10065799, “High-throughput profiling of sequence recognition by tyrosine kinases and SH2 domains using bacterial peptide display” (eLife, 2023).

Legend:
Test in all cases: pTyr-Var library bacterial peptide display kinase screen (enrichment scores)
[1] = target: T1, c-Abl kinase domain (Mus musculus, UniProt P00520); assay type: biochemical;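 note: log2 fold change in enrichment of variant over reference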
T1 sequence (P00520 242-493 limits assumed): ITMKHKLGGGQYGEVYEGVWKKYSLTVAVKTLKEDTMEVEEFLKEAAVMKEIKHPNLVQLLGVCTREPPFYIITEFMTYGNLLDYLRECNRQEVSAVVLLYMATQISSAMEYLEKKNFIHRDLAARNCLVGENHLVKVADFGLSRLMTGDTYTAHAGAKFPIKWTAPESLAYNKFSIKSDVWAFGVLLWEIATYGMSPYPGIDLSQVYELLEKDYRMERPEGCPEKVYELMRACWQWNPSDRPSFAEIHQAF

[2] = test system: EPHB2 kinase domain; assay type: biochemical, human; settings: sheet EPHB2;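 note: log2 fold change in enrichment of variant over reference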
[3] = test system: EPHB1 kinase domain; assay type: biochemical, human; settings: for Screen (variant relative to reference peptide, measured in the pTyr-Var library screen): sheet "EPHB1", variant seq vs reference seq, bacterial peptide display enrichment; for Screen: sheet EPHB1, effect of the variant peptide relative to its reference peptide in the pTyr-Var library screen (enrichment scores)
[4] = target: c-Src kinase domain (Homo sapiens, UniProt P12931); assay type: biochemical; settings: sheet "Src";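 note: log2 fold change in enrichment of variant over reference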
[5] = test system: Fer kinase domain; assay type: biochemical, mouse; settings: sheet "Fer";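 note: log2 fold change in enrichment of variant over reference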
[6] = sheet "Abl", effect of variant peptide relative to its reference peptide in pTyr-Var library screen (enrichment)
[7] = effect of the variant relative to its reference peptide in the pTyr-Var library screen
[8] = variant peptide versus its reference peptide in the pTyr-Var library screen
[9] = effect of variant peptide relative to its reference peptide in the pTyr-Var library screen (enrichment scores)
[10] = fig5-data2, sheet "Abl", Screen for the variant/reference peptide pair, pTyr-Var library
[11] = value of the variant peptide against its reference peptide in the pTyr-Var library screen with Fer
[12] = variant peptide relative to its reference peptide, pTyr-Var library screen enrichment
[13] = effect of the variant peptide relative to its reference peptide in the pTyr-Var library screen

| Sequence | Screen [4, 8] | Screen [2, 9] | Screen [3] | Screen [5, 11] | further results |
| --- | --- | --- | --- | --- | --- |
| ATKNDYWAMLA [WWOX_Y287_P282A] |  |  |  |  | Screen [1, 6]: -2.008; Screen [2, 7]: -0.4918; Screen (variant relative to reference peptide, measured in the pTyr-Var library screen) [3]: -0.006784 |
| ADARMYGDLPW [PLP1_Y207_V209D] | -1.273 | -2.321 |  |  |  |
| QEGPEYWDLET [HLA-A_Y83_Q86L] |  |  | 0.9985 |  |  |
| RRIHNYRGHLW [VHL_Y112_S111N] | -2.675 |  |  |  | Screen (variant relative to reference peptide, measured in the pTyr-Var library screen) [3]: -1.094 |
| HHIDFYKETTN [FGFR1_Y654_K656E_YF] |  | 2.27 |  |  |  |
| EEQFFYEKAIL [BCCIP_Y257_E254Q] |  |  |  | -0.4348 | Screen [1, 10]: 0.5588 |
| PMDGEYFTLQI [TP53_Y327_L323M] | 0.4461 |  |  |  | Screen [5, 12]: 0.4582 |
| GHEFIYVDRMQ [PDGFRB_Y581_P584R_YF] | -0.3711 | -3.317 | -3.432 | -2.31 |  |
| CLNAIYQNNLT [GSR_Y158_R153C] |  |  |  | 1.727 |  |
| SEEVNYATLTF [CLEC12B_Y7_T6N] |  |  | 0.955 | -0.6417 | Screen [1, 10]: 1.648; Screen [4, 13]: -1.881 |
| VFPIDYFFPPQ [AR_Y552_L548F_YF] |  | 0.813 |  |  |  |
| HNLNFYKKTTN [FGFR3_Y648_D646N_YF] |  | -1.314 | -1.233 | -1.085 | Screen [4, 13]: -1.956 |
| PAGSGYPAFLG [ATP6V1A_Y374_D371G_YF] |  |  | -1.134 |  |  |
| NTGFFYDLFGG [PTPN11_Y63_D61Y_YF] | -0.6353 |  |  |  | Screen [5, 12]: -1.238 |
| RAMPVYEKAEH [TP63_Y231_K232E] |  |  |  |  | Screen [5, 12]: 2.795 |
| IRRIAYEFVEM [ADA_Y84_K80R] |  |  |  | -0.04574 |  |
| LTDTVYSSSSA [OR4C12_Y71_I67T] | -0.5241 |  |  | 0.3207 |  |
| LITTLYIGFLD [KCNQ1_Y267_G272D] |  |  |  | 0.7229 | Screen [4, 13]: 0.3249 |
| QNTGVYFDLFG [PTPN11_Y62_D61V_YF] | 0.4058 | -4.12 | -3.507 |  | Screen [1, 10]: 0.3099 |
| REHTVYWEPRK [MAGEA4_Y240_G241W] |  |  | 3.741 |  | Screen [4, 13]: 1.621 |

| Sequence | Screen [4, 8] | Screen [2, 9] | Screen [3] | Screen [5, 11] | further results |
| --- | --- | --- | --- | --- | --- |
| LFEDHYLLGTS [ASS1_Y87_R86H_YF] |  | -0.9482 | -1.664 |  |  |
| CPFNLYAEQFS [HGD_Y40_L44F_YF] |  |  | 0.9285 |  |  |
| LSIQTYSALNF [DES_Y423_P419S] |  | -1.403 | -1.829 | -2.047 | Screen [4, 13]: -0.607 |
| TAGFIYEKWEI [TEC_Y360_S359I] | 3.208 |  |  |  | Screen [5, 12]: 3.032 |
| FCRITYDIFPF [INTS13_Y67_M66T_YF] |  | 0.3565 | -0.0851 |  | Screen [1, 10]: 1.32; Screen [4, 13]: -0.3434 |
| KGEDFYCVTFH [FHL1_Y149_C153Y_YF] |  |  |  | 1.626 | Screen [1, 10]: -1.856 |
| LEHCQYVTQKV [ALDOB_Y204_E207Q] |  | -0.3412 | -0.6551 | -1.432 |  |
| IFLGAYDRFLP [SLC22A5_Y486_V481I_YF] | -0.1658 | -0.2361 |  |  |  |
| QSSALYEDCFL [ASS1_Y83_R86C_YF] |  | 1.929 | 1.322 | 0.6979 | Screen [4, 13]: 1.263 |
| MKNDLYQTPLH [NFKB1_Y582_R578K] | -0.3133 | -1.089 |  | -0.9562 |  |
| CFCSWYRGWAP [TIMP3_Y195_G190C_YF] | 2.542 |  |  |  | Screen [5, 12]: 2.823 |
| KNEIFYQCPDQ [FBXO3_Y223_V221I] |  | -0.9058 |  | -0.5331 |  |
| GREFIYVDPMQ [PDGFRA_Y574_H570R_YF] | -0.9351 | -0.4123 | -0.6275 | -1.733 |  |
| KKHIPYKEHKS [CSNK1G1_Y205_R206K] |  |  | -0.623 | -0.8729 |  |
| KSNSDYVDVLP [SH2D1B_Y127_N122K] |  | -0.9717 |  |  | Screen (variant relative to reference peptide, measured in the pTyr-Var library screen) [3]: -0.2971 |
| MGSFNYLGFPR [SPTLC2_Y178_A182P_YF] |  |  |  |  | Screen (variant relative to reference peptide, measured in the pTyr-Var library screen) [3]: 0.8704 |
| ADARMYGVLLW [PLP1_Y207_P211L] | -0.7224 | -1.961 |  |  |  |
| PHQTIYGALMI [FGF23_Y70_S71G] |  | -2.622 | -3.192 | -2.622 | Screen [4, 13]: -0.7948 |
| TLSGIYQFSIA [FOXL2_Y81_I84S_YF] |  | -3.18 | -3.13 | -1.302 | Screen [4, 13]: -0.1944 |
| GRIHSYRGHLW [VHL_Y112_R107G] | -3.383 |  |  |  | Screen (variant relative to reference peptide, measured in the pTyr-Var library screen) [3]: -1.934 |

| Sequence | Screen [4, 8] | Screen [2, 9] | Screen [3] | Screen [5, 11] | further results |
| --- | --- | --- | --- | --- | --- |
| NTGNFYDLFGG [PTPN11_Y63_D61N_YF] | 0.1419 |  |  | 0.7498 |  |
| EWQQIYTFDSG [JUP_Y20_T19I_YF] |  |  |  | 3.242 | Screen [4, 13]: 0.7952 |
| FEDTLYTVLHR [UNC13D_Y61_A59T_YF] | -0.1643 |  |  |  | Screen [2, 7]: -1.461; Screen (variant relative to reference peptide, measured in the pTyr-Var library screen) [3]: -0.7483; Screen [5, 12]: -0.9596 |
| ADELEYSRTGL [MMUT_Y287_G284E] |  | -1.178 |  |  |  |
| SVCPDYDLCSI [SQSTM1_Y148_V153I] |  |  |  |  | Screen [1, 6]: -2.483; Screen [5, 12]: 0.6845 |
| RRIHCYRGHLW [VHL_Y112_S111C] | -2.571 |  |  |  | Screen (variant relative to reference peptide, measured in the pTyr-Var library screen) [3]: -1.56 |
| HSVLNYGVCVC [JAK2_Y613_L609S] |  |  | -0.7312 |  |  |
| PEADKYHLTFA [FGG_Y300_R301H_YF] |  |  | 0.9471 |  |  |
| LANNEYFFQVC [TTN_Y18997_R19000Q_YF] |  |  |  |  | Screen (variant relative to reference peptide, measured in the pTyr-Var library screen) [3]: 1.182 |
| EVEPTYVVLFD [ERCC4_Y577_R576T_YF] |  | 2.191 | 1.659 |  | Screen [4, 13]: 2.973 |
| WSFNLYDINKD [KCNIP3_Y174_A170S] |  | -1.005 |  | -0.8483 | Screen [4, 13]: -1.011 |
| EVASVYESFQP [MAVS_Y92_Q93E_YF] |  |  |  | 1.389 | Screen [4, 13]: 0.01447 |
| FDAHIYEGCVI [PRKCD_Y64_R67C] | 0.6982 |  |  | 2.331 |  |
| QRRFLYFFSFL [PTEN_Y176_V175L_YF] |  |  |  | -0.3574 |  |
| FSMGCYEISLE [HMGCL_Y198_G203E_YF] |  |  |  | -0.6623 | Screen [4, 13]: -0.09414 |
| HSSPVYVGRVV [TGM2_Y219_R214H] | 0.1113 |  |  |  | Screen (variant relative to reference peptide, measured in the pTyr-Var library screen) [3]: 1.553; Screen [5, 12]: 0.4894 |
| FPLELYERVRI [PRKCG_Y312_M317I_YF] |  |  | -0.1732 | 0.4614 | Screen [1, 10]: 2.263 |
| ADGLEYSRTEL [MMUT_Y287_G291E] |  | -1.172 |  |  |  |
| SISFDYCRVPM [BST2_Y8_T4I_YF] |  | -2.162 | -2.179 |  |  |
